# Experimental data as given in EP2050455B1, “Compounds leading to an increase of the IL-12/IL-10 ratio and their use for therapy of infectious and proliferative diseases” (priority 2007, dated 2009).
# Legend:
# IL-10 production of MoDC = assay: IL-10 production by ELISPOT assay (indicator culture); assay type: cell-based, Human
# Description: (§1) The number of living cells was measured by Casy-technology. […] They were analysed for expression of CD14 versus HLA-DR. Morphology was assessed by phase contrast microscopy. […] MoDC were cultured in serum containing media (A) or serum free (B). They were left untreated (black), treated with maturation cocktail as positive control (green), or with 10 nM OspA-LP (red) for 48 hours and analysed by flow cytometry for viability or the expression of CD14, CD1a, CD86/CD80 double positive cells, CD83 and CD197 (CCR7). Data were collected from 4 independent experiments. The results are means ±SD. […] After another 24 hours the cells were analysed for IL-10 production by ELISPOT assay. […] The resulting values are given numbers of spots. […] All LP treated MoDC (red) were compared with untreated MoDC (black). The blue line represents 100 spots per 5x10^4 MoDC. […] They were analysed for IL-10 (left) and IL-12p70 production (right). Shown are 3 independent experiments using cells from different healthy donors. Compared to the untreated controls (black), IL-10 production is not depressed by LPS R60/IFN-γ (red). […] (A) number of cytokine producing cells: IL-10 (black); IL-12p70 (red). (B) ratio of IL-12p70/IL-10 producing cells. […] The resulting cells were analysed for the surface expression of both CD80 and CD86 in dot plot analyses (A), and CD83 histogram overlay (B).
# (§2) This culture imitates the fate of DC after injecting them into an organism and is designed to test the actual production and release of IL-12 and IL-10 during this phase. This is tested by the well-known ELISPOT-assay. For this phase the previous inducers were either sustained or washed out. Also, further inducers were added. Number of spots as well as the intensity of spots could be read out. Therefore, this setup does more realistically reflect the actual functional state of DC at the time of injection and thereafter.
# MoDC [1] = assay: Surface marker expression / maturation of MoDC by flow cytometry; assay type: cell-based, Human
# Description: as §1
# Cytokines GM-CSF (800 IU/ml; Bayer Healthcare Pharmaceutical) plus GMP-certified IL-4 (500 IU/ml; CellGenix, Freiburg, Germany) were added to induce transdifferentiation from monocytes to immature monocyte-derived dendritic cells (iMoDC). After 5-7 days of culture iMoDC were analysed for the surface markers CD1a, CD209 und CD14 using the antibodies listed in the following table. Table
# Maturation signals were added, including signals to trigger polarisation. The cells were further cultured for another 2 days.
# Alternatively, the maturation phase was split into individual steps: • Step 1: TLR agonists lipopeptides • Step 2: presence of the previous inducers, TLR agonists lipopolysaccharide added in the presence of IFN-γ.
# [2] = tested on: IL-12p70 production of MoDC; assay: IL-12p70 production by ELISPOT assay (indicator culture); assay type: cell-based, Human
# Description: as §1, §2
# MoDC [3] = conditions: Nishiguchi et al. (2001); cited from earlier work
# iMoDC = assay: Phenotype modification: CD14 versus HLA-DR expression and phase contrast morphology; assay type: cell-based, Human; conditions: non-toxic concentrations, 20-48 hours (Example 3)
# Description: Human peripheral blood monocytes were prepared by various well-established techniques. • (1) Blood drawing was carried out in the presence of the anticoagulant EDTA, separation of the nucleated cells by combined density/velocity gradient centrifugation, followed by selective adherence in the culture for one hour. The non-attached cells were washed off and the remaining population of highly enriched monocytes was further cultured. • (2) Alternatively, blood cells were recovered by leukapheresis, followed by counterflow elutriation. The highly enriched monocyte fraction was either freeze protected or taken into culture. Cells were cultured in a humidified incubator (37°C, 5% CO2).
# [4] = non-toxic concentrations, 20-48 hours (Example 3)
substance,measurement,setting,value
FSL-1,IL-10-secretion of immature DC,IL-10 production of MoDC; ELISPOT,down-regulation
same,IL-10 production,"IL-10 production of MoDC; OspA-LP 10 nM, FSL-1 1 nM, FSL-2 1 nM, alone or combined with IFN-γ (500 IU/ml), 24 hours, vs untreated (Figure 6)",downregulated
same,IL-10 secreting cells,"IL-10 production of MoDC; non-toxic concentrations, 20-48 hours, dose-dependent, donor-independent (Example 3)",decrease
same,"Maturation of MoDC (surface expression of CD80, CD86, CD83)","MoDC [1]; FSL-1 LP 1 nM, LPS R60 1 µg/ml / IFN-γ 500 IU/ml, single or sequential (Figure 10)",only incomplete maturation
same,"Costimulatory signals (CD80, CD86)",MoDC [1]; [4],upregulated
same,maturation as measured by expression of CD83,MoDC [1]; [4],No complete maturation
same,IL-12p70 production,"[2]; OspA-LP 10 nM, FSL-1 1 nM, FSL-2 1 nM, alone or combined with IFN-γ (500 IU/ml), 24 hours (Figure 6)",remains extremely low
same,production of IL-12,[2]; immature DC,No effect
same,IL-12p70 production,[2]; [4],only poorly stimulated
same,Maturation of DC,MoDC [3],incompletely
same,cell phenotype,iMoDC,modification
